Measured values: patent publication US7618984B2, “Sulfonamide compound” (Asahi Kasei Pharma Corporation, priority 2005, dated 2009)

Experiments:
[1] = tested on: phosphorylation of myosin regulatory light chain; assay: Inhibitory action on phosphorylation of myosin regulatory light chain (Test Example 1); assay type: cell-based; details: Neutrophil, 5 min; human peripheral blood neutrophils, 25° C. for 5 minutes; read-out: IC50, compound concentration providing a phosphorylation inhibition ratio of 50% (myosin regulatory light chain)
Description: A volume of 50 to 100 ml of peripheral blood collected from healthy volunteers was centrifuged by using Mono-Poly separator solution (Dainippon Pharmaceutical) to prepare a neutrophil containing fraction. The neutrophils were washed with PBS(−) and resuspended in Hanks' Balanced Salt Solution (HBSS+, Gibco) to prepare a cell suspension (8×10^6/ml). The cell suspension was diluted to 5×10^6/ml, introduced into Eppendorf tubes in a volume of 0.4 ml each, then 0.1 ml each of solutions of a test compound at various concentrations were added to the suspension and allowed to react at 25° C. for 5 minutes. After the reaction, 0.1 ml of trichloroacetic acid solution was added to each reaction mixture, the reaction mixture was gently shaken and centrifuged at 12,000 rpm (4° C., 5 minutes), and the supernatant was removed. Subsequently, 3 μl of 1 M Tris solution was added to the residue, the mixture was further mixed with 50 μl of extraction buffer (8 M urea, 0.02% 2-mercaptoethanol, 0.002% bromophenol blue) and left stand at room temperature for 1 hour. Then, the reaction mixture was loaded on a spin column (0.45 μm, Millipore) to remove the insoluble solids and a sample buffer for SDS polyacrylamide gel electrophoresis (25 mM, Tris-HCl pH 6.8, 2.5% 2-mercaptoethanol, 2% sodium dodecylsulfate, 5% sucrose, 0.002% bromophenol blue as final concentrations) was added, and 10 μl of each sample was subjected to electrophoresis.
The gel after the electrophoresis was blotted on a nitrocellulose membrane (BioRad), blocked with 5% skim milk, and reacted successively with antibodies pLC1 (Sakurada K. et al, Am. J. Physiol., 274, C1563-C1572 (1998)), which specifically recognize the phosphorylated myosin regulatory light chain, and donkey anti-mouse IgG (Chemicon) conjugated with horseradish peroxidase. The band of the phosphorylated myosin regulatory light chain was detected on a film by using ECL Plus Kit (Amersham Pharmacia Biotech). This band was subjected to quantification using a densitometer. By using this value, the inhibitory ratio (%) for phosphorylation of the myosin regulatory light chain was calculated by using the following equation. Phosphorylation inhibition ratio(%)=1−(Band intensity of phosphorylated myosin regulatory light chain with addition of the test compound/Band intensity of phosphorylated myosin regulatory light chain without addition of the test compound)×100
Further, the phosphorylation inhibition ratio was calculated with changing the concentrations of the test compound, and a compound concentration providing an inhibition ratio of 50% was obtained as IC50.

neutrophils = assay: Neutrophil migration inhibitory action, Boyden Chamber, FMLP (Test Example 3); assay type: cell-based; details: 0.5 h, human neutrophils, FMLP 1 μM, 37° C., 30 minutes, read-out: IC50, compound concentration providing a migration inhibition ratio of 50%
Description: Neutrophils were isolated from 50 to 100 ml of peripheral blood collected from healthy human donors by the method described in Test Example 1 to obtain a cell suspension (8×10^6/ml). Subsequently, solutions of a test compound at various concentrations were introduced into wells of a 96-well plate in a volume of 125 μl per well, the cell suspension of an equivalent volume was added to it and the plate was preincubated at room temperature for 5 minutes. During the preincubation, FMLP (1 μM, Sigma) solution was added to the lower chamber to set Boyden Chamber, the preincubated cell suspension was added to the upper chamber in a volume of 200 μl per well, and the cells were allowed to migrate at 37° C. under 5% carbon dioxide for 30 minutes. The filter after the migration was collected, and the non-migrated cells adhered to the surface that faced the upper chamber were carefully wiped off. Then, the migrated cells on the back surface were stained with DifQuick dye solution (International Reagents), washed with water and dried, and then absorbance was measured at 595 nm. The inhibition ratio against migration (%) of a test compound was calculated by using the following equation: Migration inhibition ratio(%)=(1−Absorbance of the group with addition of test compound/Absorbance of the group without addition of test compound)×100
Further, the migration inhibitory ratio was calculated with changing the test compound concentration, and a compound concentration providing an inhibition ratio of 50% was obtained as IC50.

[2] = tested on: rabbit normal intraocular pressure; assay: Intraocular pressure reducing action (Test Example 2); assay type: in vivo, Japanese white rabbit; details: Oryctolagus cuniculus, topical; 3 mM aqueous solution, 50 μl to the left eye; measured after 2, 4 and 6 hours; read-out: intraocular pressure reducing degree (max ΔIOP / intraocular pressure value immediately before administration × 100)
Description: A Japanese white rabbit having a body weight of about 2 kg was placed in a positioner and naturalized for one week before the experiment. An opthalmologic local anesthesant (Benoxil) was administered to both eyes, and then intraocular pressure was measured by using a tonometer (Classic 30, Solan). A 3 mM aqueous solution of a test compound was administered in a volume of 50 μl to the left eye, and the right eye was not treated (control eye). The intraocular pressure values were measured for the left and right eyes immediately before, and 2, 4 and 6 hours after the administration of the aqueous solution of the test compound, and the difference of the measured values for the left and right eyes was considered an intraocular pressure reduction value of the test medicament at each measurement time. The largest difference of the values for the left and right eyes among the measured values at the measurement times (after 2, 4 and 6 hours) was considered the maximum intraocular pressure reduction value (max ΔIOP) of each test medicament. The intraocular pressure reducing degree representing the intraocular pressure reducing action of each test medicament was calculated according to the following formula. Since rabbits show significant daily variation of intraocular pressure, daily variation is added when change of intraocular pressure is measured over time, and the intraocular pressure reducing action may be overestimated. Therefore, we used this calculation method of intraocular pressure reduction value in order to minimize the influence of the variation. Intraocular pressure reducing degree (%)=(max ΔIOP/Intraocular pressure value immediately before administration)×100

Row | Compound | IC50 [1] [µM] | IC50 (neutrophils) [µM] | inhibition in vivo at 3000 µM [2] [%]
1 | C=Cc1cncc2cccc(S(=O)(=O)N3CC[C@H](N)C3)c12 [Example 9-1, (S)-3-Amino-1-(4-vinyl-5-isoquinolinesulfonyl)pyrrolidine] | < 10 | 10 to 40 | ≥ 20
2 | COc1cncc2cccc(S(=O)(=O)N3CC[C@H](N)C3)c12 [Example 15-1, (S)-3-Amino-1-(4-methoxy-5-isoquinolinesulfonyl)pyrrolidine] | 10 to 40 |  | 5 to 10
3 | N[C@H]1CCN(S(=O)(=O)c2cccc3c(O)ncc(Br)c23)C1 [Example 7-1, (S)-3-Amino-1-(1-hydroxy-4-bromo-5-isoquinolinesulfonyl)pyrrolidine] | < 10 | < 10 | ≥ 20
4 | CN[C@@H]1CCN(S(=O)(=O)c2cccc3cncc(C)c23)C1 [Example 27, (R)-3-(Methylamino)-1-(4-methyl-5-isoquinolinesulfonyl)pyrrolidine] | < 10 | 10 to 40 | 5 to 10
5 | N[C@@H]1CCN(S(=O)(=O)c2cccc3cncc(Cl)c23)C1 [Example 19-2, (R)-3-Amino-1-(4-chloro-5-isoquinolinesulfonyl)pyrrolidine] | < 10 | 10 to 40 | ≥ 20
6 | C#Cc1cncc2cccc(S(=O)(=O)N3CC[C@H](N)C3)c12 [Example 10-1, (S)-3-Amino-1-(4-ethynyl-5-isoquinolinesulfonyl)pyrrolidine] | < 10 | 10 to 40 | ≥ 20
7 | CCc1cncc2cccc(S(=O)(=O)N3CC[C@H](N)C3)c12 [Example 23-1, (S)-3-Amino-1-(4-ethyl-5-isoquinolinesulfonyl)pyrrolidine] | < 10 | 10 to 40 | 10 to 20
8 | N[C@H]1CCN(S(=O)(=O)c2cccc3cncc(C4CC4)c23)C1 [Example 11-1, (S)-3-Amino-1-(4-cyclopropyl-5-isoquinolinesulfonyl)pyrrolidine] | < 10 | 10 to 40 | 5 to 10
9 | CN[C@@H]1CCN(S(=O)(=O)c2cccc3cncc(Cl)c23)C1 [Example 32-2, (R)-1-(4-Chloro-5-isoquinolinesulfonyl)-3-(methylamino)pyrrolidine] | < 10 | 10 to 40 | 10 to 20
10 | Nc1cncc2cccc(S(=O)(=O)N3CC[C@H](N)C3)c12 [Example 12-1, (S)-3-Amino-1-(4-amino-5-isoquinolinesulfonyl)pyrrolidine] | 10 to 40 |  | 10 to 20
11 | Cc1cncc2cccc(S(=O)(=O)N3CCC[C@@H](N)C3)c12 [Example 22-2, (R)-3-Amino-1-(4-methyl-5-isoquinolinesulfonyl)piperidine] | < 10 | 10 to 40 | 10 to 20
12 | N[C@@H]1CCN(S(=O)(=O)c2cccc3cncc(Br)c23)C1 [Example 1-2, (R)-3-Amino-1-(4-bromo-5-isoquinolinesulfonyl)pyrrolidine] | < 10 | 10 to 40 | ≥ 20
13 | N[C@H]1CCN(S(=O)(=O)c2cccc3cncc(Br)c23)C1 [Example 1-1, (S)-3-Amino-1-(4-bromo-5-isoquinolinesulfonyl)pyrrolidine] | < 10 | 10 to 40 | ≥ 20
14 | CN[C@H]1CCN(S(=O)(=O)c2cccc3c(O)ncc(Cl)c23)C1 [Example 36-1, (S)-1-(1-Hydroxy-4-chloro-5-isoquinolinesulfonyl)-3-(methylamino)pyrrolidine] | < 10 | < 10 | 10 to 20
15 | Cc1cnc(O)c2cccc(S(=O)(=O)N3CC[C@H](N)C3)c12 [Example 25-1, (S)-3-Amino-1-(1-hydroxy-4-methyl-5-isoquinolinesulfonyl)pyrrolidine] | < 10 | < 10 | 10 to 20
16 | N[C@H]1CCN(S(=O)(=O)c2cccc3cncc(F)c23)C1 [Example 18-1, (S)-3-Amino-1-(4-fluoro-5-isoquinolinesulfonyl)pyrrolidine] | 10 to 40 |  | ≥ 20

More lines, main results first:

Row | IC50 [1] [µM] | IC50 (neutrophils) [µM] | Compound | inhibition in vivo at 3000 µM [2] [%]
17 | < 10 | 10 to 40 | Cc1cncc2cccc(S(=O)(=O)N3CC(N)C3)c12 [Example 26, 3-Amino-1-(4-methyl-5-isoquinolinesulfonyl)azetidine] | 5 to 10
18 | < 10 | < 10 | O=S(=O)(c1cccc2cncc(Br)c12)N1CC[C@H](NCc2ccco2)C1 [Example 4-1, (S)-3-(2-Furylmethyl)amino-1-(4-bromo-5-isoquinolinesulfonyl)pyrrolidine] | ≥ 20
19 | < 10 | < 10 | Cc1cncc2cccc(S(=O)(=O)N3CC[C@H](N)C3)c12 [Example 8-1, (S)-3-Amino-1-(4-methyl-5-isoquinolinesulfonyl)pyrrolidine] | ≥ 20
20 | < 10 | < 10 | Cc1cncc2cccc(S(=O)(=O)N3CC[C@@H](N)C3)c12 [Example 8-2, (R)-3-Amino-1-(4-methyl-5-isoquinolinesulfonyl)pyrrolidine] | ≥ 20
21 | 10 to 40 |  | N[C@H]1CCCN(S(=O)(=O)c2cccc3cncc(Cl)c23)C1 [Example 21-1, (S)-3-Amino-1-(4-chloro-5-isoquinolinesulfonyl)piperidine] | ≥ 20
22 | < 10 | 10 to 40 | Cc1cncc2cccc(S(=O)(=O)N3CCC[C@H](N)C3)c12 [Example 22-1, (S)-3-Amino-1-(4-methyl-5-isoquinolinesulfonyl)piperidine] | 10 to 20
23 | 10 to 40 |  | N[C@@H]1CCCN(S(=O)(=O)c2cccc3cncc(Cl)c23)C1 [Example 21-2, (R)-3-Amino-1-(4-chloro-5-isoquinolinesulfonyl)piperidine] | 10 to 20
